Patent US6855710B2, “Substituted indolines with an inhibitory effect on various kinases and complexes of CDKs” (Boehringer Ingelheim Pharma KG, priority 1998, dated 2005)

Structure (SMILES)	melting point
CN(Cc1ccc(N/C(=C2\C(=O)Nc3ccc([N+](=O)[O-])cc32)c2ccccc2)cc1)C1CCCCC1 [Example 232, (Z)-3-{1-[4-(N-cyclohexyl-N-methyl-aminomethyl)-phenylamino]-1-phenyl-methylidene}-5-nitro-2-indolinone]	215 °C
O=CNc1cccc(N/C(=C2\C(=O)Nc3ccccc32)c2ccccc2)c1 [Example 30, (Z)-3-[1-(3-formylamino-phenylamino)-1-phenyl-methylidene]-2-indolinone]	231 °C
CC(=O)NCc1ccc(/C(Nc2ccc(N(C)C(=O)CN(C)C)cc2)=C2/C(=O)Nc3ccccc32)cc1 [Example 431, (Z)-3-{1-[4-(N-dimethylaminomethylcarbonyl-N-methyl-amino)-phenylamino]-1-(4-acetylaminomethyl-phenyl)-methylidene}-2-indolinone]	123 to 125 °C
NC(=O)C1CCN(Cc2ccc(N/C(=C3\C(=O)Nc4ccc([N+](=O)[O-])cc43)c3ccccc3)cc2)CC1 [Example 247, (Z)-3-{1-[4-(4-aminocarbonyl-piperidinomethyl)-phenylamino]-1-phenyl-methylidene}-5-nitro-2-indolinone]	296 to 297 °C
CN(CCCOc1ccc(N/C(=C2\C(=O)Nc3ccccc32)c2ccccc2)cc1)Cc1ccccc1 [Example 288, (Z)-3-{1-[4-(3-(N-benzyl-N-methyl-amino)-propyloxy)-phenylamino]-1-phenyl-methylidene}-2-indolinone]	187 to 189 °C
COC1CCN(CCc2ccc(N/C(=C3\C(=O)Nc4ccc([N+](=O)[O-])cc43)c3ccccc3)cc2)CC1 [Example 261, (Z)-3-{1-[4-(2-(4-methoxypiperidino)-ethyl)-phenylamino]-1-phenyl-methylidene}-5-nitro-2-indolinone]	212 to 214 °C
COc1ccc(/C(Nc2ccc(CN3CCCCC3)cc2)=C2/C(=O)Nc3ccc([N+](=O)[O-])cc32)cc1 [Example 441, (Z)-3-[1-(4-piperidinomethyl-phenylamino)-1-(4-methoxyphenyl)-methylidene]-5-nitro-2-indolinone]	230 to 233 °C
O=C1Nc2ccc([N+](=O)[O-])cc2/C1=C(/Nc1ccc(CCN2CCC(O)CC2)cc1)c1ccccc1 [Example 260, (Z)-3-{1-[4-(2-(4-hydroxypiperidino)-ethyl)-phenylamino]-1-phenyl-methylidene}-5-nitro-2-indolinone]	274 to 276 °C
CNCCc1ccc(N/C(=C2\C(=O)Nc3ccc([N+](=O)[O-])cc32)c2ccccc2)cc1 [Example 254, (Z)-3-{1-[4-(2-methylamino-ethyl)-phenylamino]-1-phenyl-methylidene}-5-nitro-2-indolinone]	250 to 252 °C
CS(=O)(=O)N(CC#N)c1ccc(N/C(=C2\C(=O)Nc3ccccc32)c2ccccc2)cc1 [Example 187, (Z)-3-{1-[4-(N-cyanomethyl-N-methylsulphonyl-amino)-phenyl-amino]-1-phenyl-methylidene}-2-indolinone]	266 to 268 °C
O=C1Nc2ccc([N+](=O)[O-])cc2/C1=C(/Nc1ccc(CN2CC[S+]([O-])CC2)cc1)c1ccccc1 [Example 230, (Z)-3-{1-[4-((1-oxothiomorpholino)-methyl)-phenylamino]-1-phenyl-methylidene}-5-nitro-2-indolinone]	289 to 290 °C
CN(C)CCNC(=O)CN(c1cccc(N/C(=C2\C(=O)Nc3ccccc32)c2ccccc2)c1)S(C)(=O)=O [Example 322, (Z)-3-{1-[3-(N-(2-dimethylamino-ethylaminocarbonylmethyl)-N-methylsulphonyl-amino)-phenylamino]-1-phenyl-methylidene}-2-indolinone]	179 to 181 °C
O=C1Nc2ccccc2/C1=C(/Nc1ccc(OCCN2CCCCC2)cc1)c1ccccc1 [Example 285, (Z)-3-{1-[4-(2-piperidinoethyloxy)-phenylamino]-1-phenyl-methylidene}-2-indolinone]	198 to 200 °C
CN(CC(=O)O)C(=O)c1ccc(N/C(=C2\C(=O)Nc3ccccc32)c2ccccc2)cc1 [Example 395, (Z)-3-{1-[4-(N-carboxymethyl-N-methyl-aminocarbonyl)-phenylamino]-1-phenyl-methylidene}-2-indolinone]	168 to 170 °C
CCC(=O)N(CC(=O)N(C)C)c1ccc(N/C(=C2\C(=O)Nc3ccccc32)c2ccccc2)cc1 [Example 359, (Z)-3-{1-[4-(N-dimethylaminocarbonylmethyl-N-propionyl-amino)-phenylamino]-1-phenyl-methylidene}-2-indolinone]	274 to 277 °C
Nc1ccc(N/C(=C2\C(=O)Nc3ccc([N+](=O)[O-])cc32)c2ccccc2)cc1 [Example 91, (Z)-3-[1-(4-aminophenylamino)-1-phenyl-methylidene]-5-nitro-2-indolinone]	269 °C
CN(C)CCNC(=O)CN(c1ccc(N/C(=C2\C(=O)Nc3ccccc32)c2ccccc2)cc1)S(C)(=O)=O [Example 194, (Z)-3-{1-[4-(N-(2-dimethylamino-ethylaminocarbonylmethyl)-N-methylsulphonyl-amino)-phenylamino]-1-phenyl-methylidene}-2-indolinone]	214 to 216 °C

Structure (SMILES)	melting point
CN(C)Cc1ccc(N/C(=C2\C(=O)Nc3ccccc32)c2ccccc2)cc1 [Example 266, (Z)-3-{1-[4-(dimethylaminomethyl)-phenylamino]-1-phenyl-methylidene}-2-indolinone]	237 to 240 °C
CCNCCc1ccc(N/C(=C2\C(=O)Nc3ccc([N+](=O)[O-])cc32)c2ccccc2)cc1 [Example 255, (Z)-3-{1-[4-(2-ethylamino-ethyl)-phenylamino]-1-phenyl-methylidene}-5-nitro-2-indolinone]	235 to 237 °C
CC(=O)NC(c1ccc(N/C(=C2\C(=O)Nc3ccc([N+](=O)[O-])cc32)c2ccccc2)cc1)N(C)C(=O)OC(C)(C)C (stereo not shown) [Example 145, (Z)-3-{1-[4-((N-tert.butoxycarbonyl-N-methyl-amino)-methylcarbonylaminomethyl)-phenylamino]-1-phenyl-methylidene}-5-nitro-2-indolinone]	225 to 227 °C (dec.)
Cc1ccc(S(=O)(=O)N(CC(=O)N(C)C)c2ccc(N/C(=C3\C(=O)Nc4ccc([N+](=O)[O-])cc43)c3ccccc3)cc2)cc1 [Example 210, (Z)-3-{1-[4-(N-dimethylaminocarbonylmethyl-N-(p-tolylsulphonyl)-amino)-phenylamino]-1-phenyl-methylidene}-5-nitro-2-indolinone]	198 to 200 °C
COc1cccc(/C(Nc2ccc(CN(C)C)cc2)=C2/C(=O)Nc3ccccc32)c1 [Example 217, (Z)-3-[1-(4-dimethylaminomethyl-phenylamino)-1-(3-methoxyphenyl)-methylidene]-2-indolinone]	193 to 194 °C
CN(C(=O)CN1CCNCC1)c1ccc(N/C(=C2\C(=O)Nc3ccccc32)c2ccccc2)cc1.Cl.Cl	255 to 258 °C (dec.)
CC(C)(C)OC(=O)NCc1ccc(N/C(=C2\C(=O)Nc3ccc([N+](=O)[O-])cc32)c2ccc(CNC(=O)c3ccccc3C(=O)O)cc2)cc1 [Example 147, (Z)-3-{1-[4-tert.butoxycarbonylaminomethyl-phenylamino]-1-[4-(2-carboxyphenyl)-carbonylaminomethyl-phenyl]-methylidene}-5-nitro-2-indolinone]	138 °C (dec.)
CC(=O)NCC(=O)N(C)c1ccc(N/C(=C2\C(=O)Nc3ccccc32)c2ccccc2)cc1 [Example 367, (Z)-3-{1-[4-(N-acetylaminomethylcarbonyl-N-methyl-amino)-phenylamino]-1-phenyl-methylidene}-2-indolinone]	255 to 256 °C
COCCNCc1ccc(N/C(=C2\C(=O)Nc3ccc([N+](=O)[O-])cc32)c2ccccc2)cc1 [Example 174, (Z)-3-{1-[4-(2-methoxyethylaminomethyl)-phenylamino]-1-phenyl-methylidene}-5-nitro-2-indolinone]	184 to 185 °C
CN(C)CCNC(=O)c1ccc(N/C(=C2\C(=O)Nc3ccccc32)c2ccccc2)cc1 [Example 390, (Z)-3-{1-[4-(2-dimethylamino-ethylaminocarbonyl)-phenylamino]-1-phenyl-methylidene}-2-indolinone]	145 to 147 °C
NCc1cccc(N/C(=C2\C(=O)Nc3ccccc32)c2ccccc2)c1 [Example 68, (Z)-3-[1-(3-aminomethyl-phenylamino)-1-phenyl-methylidene]-2-indolinone]	175 to 185 °C
Cl.NCCc1ccc(N/C(=C2\C(=O)Nc3ccc([N+](=O)[O-])cc32)c2ccccc2)cc1	335 to 340 °C (dec.)
CC(C)C(=O)N(CCN1CCOCC1)c1ccc(N/C(=C2\C(=O)Nc3ccc([N+](=O)[O-])cc32)c2ccccc2)cc1 [Example 336, (Z)-3-{1-[4-(N-(2-morpholinoethyl)-N-isopropylcarbonyl-amino)-phenylamino]-1-phenyl-methylidene}-5-nitro-2-indolinone]	254 °C
O=C1Nc2ccccc2/C1=C(/Nc1ccc(NCCN2CCOCC2)cc1)c1ccccc1 [Example 346, (Z)-3-{1-[4-(2-morpholinoethylamino)-phenylamino]-1-phenyl-methylidene}-2-indolinone]	257 °C
CCOC(=O)CN(c1cccc(N/C(=C2\C(=O)Nc3ccccc32)c2ccccc2)c1)S(C)(=O)=O [Example 317, (Z)-3-{1-[3-(N-ethoxycarbonylmethyl-N-methylsulphonyl-amino)-phenylamino]-1-phenyl-methylidene}-2-indolinone]	188 to 190 °C
CN(C(=O)CN)c1ccc(N/C(=C2\C(=O)Nc3ccccc32)c2ccccc2)cc1 [Example 366, (Z)-3-{1-[4-(N-aminomethylcarbonyl-N-methyl-amino)-phenylamino]-1-phenyl-methylidene}-2-indolinone]	238 to 239 °C
O=C(O)CNS(=O)(=O)c1ccc(N/C(=C2\C(=O)Nc3ccccc32)c2ccccc2)cc1 [Example 407, (Z)-3-{1-[4-(carboxymethylaminosulphonyl)-phenylamino]-1-phenyl-methylidene}-2-indolinone]	236 °C (dec.)
